Experimental data taken from US12077503B2, “Substituted cyclic amides and their use as herbicides” (FMC CORPORATION, priority 2015, dated 2024).

Tests used:
Test in all cases: Test G Post-Emergence Protocol
Format in all cases: in vivo
[1] = tested on: velvetleaf (Abutilon theophrasti); details: Abutilon theophrasti, post-emergence, 312 h; for pest or weed control at 15.625 g/ha: 15.625 g ai/ha, evaluated after 13 days (100=total damage to plant; 0=no damage to plant), read-out: Velvetleaf damage rating; for pest or weed control at 62.5 g/ha: 62.5 g ai/ha, read-out: Velvetleaf damage rating (100=total damage to plant; 0=no damage to plant); for pest or weed control at 62.5 g/ha / pest or weed control at 250 g/ha: evaluated after 13 days; for pest or weed control at 250 g/ha: 250 g ai/ha, read-out: damage to plant, Velvetleaf (100=total damage to plant; 0=no damage to plant)
How it was run: (§1)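 Values are percent visual injury at 13 days after treatment (0 none, 100 total). Treatment was a post-emergence spray at 15.625, 62.5 or 250 g/ha on 8-day-old pot plants kept at 24/16 °C.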

[2] = tested on: ivy-leaved morning glory (Ipomoea hederacea); details: Ipomoea, post-emergence, 312 h; for pest or weed control at 15.625 g/ha: 15.625 g ai/ha, evaluated after 13 days (100=total damage to plant; 0=no damage to plant), read-out: Morningglory, Ivy-leaved damage rating; for pest or weed control at 62.5 g/ha: 62.5 g ai/ha, read-out: Morningglory, Ivy-leaved damage rating (100=total damage to plant; 0=no damage to plant); for pest or weed control at 62.5 g/ha / pest or weed control at 250 g/ha: evaluated after 13 days; for pest or weed control at 250 g/ha: 250 g ai/ha, read-out: damage to plant, Morningglory, Ivy-leaved (100=total damage to plant; 0=no damage to plant)
How it was run: as §1

[3] = tested on: barnyardgrass (Echinochloa crus-galli); details: Echinochloa crus-galli, post-emergence, 312 h; for pest or weed control at 15.625 g/ha: 15.625 g ai/ha, evaluated after 13 days (100=total damage to plant; 0=no damage to plant), read-out: Barnyardgrass damage rating; for pest or weed control at 62.5 g/ha: 62.5 g ai/ha, read-out: Barnyardgrass damage rating (100=total damage to plant; 0=no damage to plant); for pest or weed control at 62.5 g/ha / pest or weed control at 250 g/ha: evaluated after 13 days; for pest or weed control at 250 g/ha: 250 g ai/ha, read-out: damage to plant, Barnyardgrass (100=total damage to plant; 0=no damage to plant)
How it was run: as §1

[4] = tested on: redroot pigweed (Amaranthus retroflexus); details: Amaranthus retroflexus, post-emergence, 312 h; for pest or weed control at 15.625 g/ha: 15.625 g ai/ha, evaluated after 13 days (100=total damage to plant; 0=no damage to plant), read-out: Pigweed, Redroot damage rating; for pest or weed control at 62.5 g/ha: 62.5 g ai/ha, read-out: Pigweed, Redroot damage rating (100=total damage to plant; 0=no damage to plant); for pest or weed control at 62.5 g/ha / pest or weed control at 250 g/ha: evaluated after 13 days; for pest or weed control at 250 g/ha: 250 g ai/ha, read-out: damage to plant, Pigweed, Redroot (100=total damage to plant; 0=no damage to plant)
How it was run: as §1

[5] = tested on: giant foxtail (Setaria faberi); details: Setaria faberi, post-emergence, 312 h; for pest or weed control at 15.625 g/ha: 15.625 g ai/ha, evaluated after 13 days (100=total damage to plant; 0=no damage to plant), read-out: Foxtail, Giant damage rating; for pest or weed control at 62.5 g/ha: 62.5 g ai/ha, read-out: Foxtail, Giant damage rating (100=total damage to plant; 0=no damage to plant); for pest or weed control at 62.5 g/ha / pest or weed control at 250 g/ha: evaluated after 13 days; for pest or weed control at 250 g/ha: 250 g ai/ha, read-out: damage to plant, Foxtail, Giant (100=total damage to plant; 0=no damage to plant)
How it was run: as §1

corn (Zea mays) = details: Zea mays, post-emergence, 312 h; for plant injury at 15.625 g/ha: 15.625 g ai/ha, evaluated after 13 days (100=total damage to plant; 0=no damage to plant), read-out: Corn damage rating; for plant injury at 62.5 g/ha: 62.5 g ai/ha, read-out: Corn damage rating (100=total damage to plant; 0=no damage to plant); for plant injury at 62.5 g/ha / plant injury at 250 g/ha: evaluated after 13 days; for plant injury at 250 g/ha: 250 g ai/ha, read-out: damage to plant, Corn (100=total damage to plant; 0=no damage to plant)
How it was run: as §1

Row | SMILES | pest or weed control at 15.625 g/ha [1] | pest or weed control at 62.5 g/ha [1] | pest or weed control at 250 g/ha [1] | pest or weed control at 15.625 g/ha [2] | pest or weed control at 62.5 g/ha [2] | pest or weed control at 250 g/ha [2] | pest or weed control at 15.625 g/ha [3] | pest or weed control at 62.5 g/ha [3] | pest or weed control at 250 g/ha [3] | pest or weed control at 15.625 g/ha [4] | pest or weed control at 62.5 g/ha [4] | pest or weed control at 250 g/ha [4] | pest or weed control at 15.625 g/ha [5] | pest or weed control at 62.5 g/ha [5] | pest or weed control at 250 g/ha [5] | plant injury at 15.625 g/ha (corn (Zea mays)) | plant injury at 62.5 g/ha (corn (Zea mays)) | plant injury at 250 g/ha (corn (Zea mays))
1 | CN1C[C@@H](c2ccc(C(F)(F)F)cc2)[C@H](C(=O)Nc2ncc(C#N)s2)C1=O (racemic) [Compound 1528] | 0% | 0% | 0% | 0% | 0% | 0% | 0% | 0% | 0% | 0% | 0% | 0% | 0% | 0% | 0% | 0% | 0% | 0%
2 | CN1C[C@@H](c2ccc(C(F)(F)F)cc2)[C@H](C(=O)Nc2ccccc2)C1=O (racemic) [Compound 1404] | 10% | 20% | 20% | 0% | 10% | 30% | 10% | 20% | 40% | 20% | 40% | 30% | 0% | 50% | 70% | 20% | 20% | 40%
3 | Cc1cc(NC(=O)[C@@H]2C(=O)N(C)C[C@H]2c2ccc(C(F)(F)F)cc2)n[nH]1 (racemic) [Compound 1532] | 0% | 0% | 0% | 0% | 0% | 0% | 0% | 0% | 0% | 0% | 0% | 0% | 0% | 0% | 0% | 0% | 0% | 0%
4 | Cc1cscc1NC(=O)[C@@H]1C(=O)N(C)C[C@H]1c1ccc(C(F)(F)F)cc1 (racemic) [Compound 1526] | 0% | 0% | 10% | 0% | 10% | 20% | 0% | 0% | 60% | 0% | 0% | 0% | 0% | 20% | 60% | 0% | 10% | 10%
5 | CN1C[C@@H](c2ccc(C(F)(F)F)cc2)[C@H](C(=O)Nc2ccno2)C1=O (racemic) [Compound 1513] | 0% | 0% | 0% | 0% | 0% | 0% | 0% | 0% | 0% | 0% | 0% | 0% | 0% | 0% | 0% | 0% | 0% | 0%
6 | CN1C[C@@H](c2ccc(C(F)(F)F)cc2)[C@H](C(=O)Nc2ncc(Br)cn2)C1=O (racemic) [Compound 1514] | 0% | 0% | 0% | 0% | 0% | 0% | 0% | 0% | 0% | 0% | 0% | 0% | 0% | 0% | 0% | 0% | 10% | 10%
